Assay: method code SF-AS, from DOI: 10.1002/zfch.19860260715
Details: pH 7.4

First: CCOc1ccc(NC(=O)NNC(C)=O)cc1
Second: COc1ccc(NC(=O)NNC(C)=O)cc1
The logD of the first is higher: 0.55 for the first, 0.06 for the second.

Going from CC(=O)NNC(=O)Nc1ccc(N(C)C)cc1 to CC(=O)NNC(=O)Nc1ccc(C)cc1, the logD rises from 0.11 to 0.76.

Going from CC(=O)NNC(=O)Nc1cccc(C(F)(F)F)c1 to CC(=O)NNC(=O)Nc1cccc(C)c1, the logD falls from 1.63 to 0.77.

Going from CC(=O)NNC(=O)Nc1ccc(C#N)cc1 to CC(=O)NNC(=O)Nc1ccc(C(C)(C)C)cc1, the logD rises from 0.37 to 2.14.

Compared with CC(=O)NNC(=O)Nc1ccc(Oc2ccccc2)cc1, COc1cccc(NC(=O)NNC(C)=O)c1 is lower in logD: 2.09 for the first, 0.39 for the second.

From the SangsterLogP compilation
